# Measured values: patent US6737383B1, “Herbicidal oxadiazolidines” (priority 1999, dated 2004)
# Legend:
# blackgrass = test: Test B pre/postemergence blackgrass; assay type: in vivo, Alopecurus myosuroides
# In short: (§1)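 Test chemicals in a non-phytotoxic solvent mixture with surfactant were sprayed preemergence onto planted seeds and postemergence onto plants 2 to 18 cm tall (1- to 4-leaf stage). After twelve to sixteen days in a greenhouse, injury was visually rated against untreated controls from 0 (no effect) to 10 (complete control).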
# surinam grass = test: Test B pre/postemergence surinam grass; assay type: in vivo, Brachiaria decumbens
# In short: as §1
# cocklebur = test: Test B pre/postemergence cocklebur; assay type: in vivo, Xanthium strumarium
# In short: as §1
# corn = test: Test B pre/postemergence corn; assay type: in vivo, Zea mays
# In short: as §1
# crabgrass = test: Test B pre/postemergence crabgrass; assay type: in vivo, Digitaria sanguinalis
# In short: as §1
# giant foxtail = test: Test B pre/postemergence giant foxtail; assay type: in vivo, Setaria faberii
# In short: as §1
# morningglory = test: Test B pre/postemergence morningglory; assay type: in vivo, Ipomoea hederacea
# In short: as §1
# pigweed = test: Test B pre/postemergence pigweed; assay type: in vivo, Amaranthus retroflexus
# In short: as §1
# rape = test: Test B pre/postemergence rape; assay type: in vivo, Brassica napus
# In short: as §1
# soybean = test: Test B pre/postemergence soybean; assay type: in vivo, Glycine max
# In short: as §1
# sugar beet = test: Test B pre/postemergence sugar beet; assay type: in vivo, Beta vulgaris
# In short: as §1
# velvetleaf = test: Test B pre/postemergence velvetleaf; assay type: in vivo, Abutilon theophrasti
# In short: as §1
# wheat = test: Test B pre/postemergence wheat; assay type: in vivo, Triticum aestivum
# In short: as §1
# wild oat = test: Test B pre/postemergence wild oat; assay type: in vivo, Avena fatua
# In short: as §1
# purple nutsedge = test: Test B pre/postemergence purple nutsedge; assay type: in vivo, Cyperus rotundus
# In short: as §1
# rice = test: Test B flood test rice; assay type: in vivo, Oryza sativa
# In short: (§2)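 Each value is a visual injury score relative to controls, with 10 meaning complete control and 0 no effect. Evaluation took place twelve to sixteen days after the 2-leaf-stage plants were treated and kept in the greenhouse.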
# smallflower flatsedge = test: Test B flood test smallflower flatsedge; assay type: in vivo, Cyperus difformis
# In short: as §2
# duck salad = test: Test B flood test duck salad; assay type: in vivo, Heteranthera limosa
# In short: as §2
# bamyardgrass = test: Test B flood test barnyardgrass; assay type: in vivo, Echinochloa crus-galli
# In short: as §2
# [1] = Postemergence, Rate 62 g/ha, scale of 0 to 10, 0 is no effect, 10 is complete control
# [2] = Postemergence, Rate 125 g/ha, scale of 0 to 10 where 0 is no effect and 10 is complete control
# [3] = Postemergence, Rate 250 g/ha, scale of 0 to 10, 0 is no effect, 10 is complete control
# [4] = Postemergence, Rate 500 g/ha, scale of 0 to 10 where 0 is no effect and 10 is complete control
# [5] = Preemergence, Rate 62 g/ha, scale 0 to 10 (0 no effect, 10 complete control)
# [6] = Preemergence, Rate 125 g/ha, scale of 0 to 10 where 0 is no effect and 10 is complete control
# [7] = Preemergence, Rate 500 g/ha, scale of 0 to 10 where 0 is no effect and 10 is complete control
# [8] = Rate 62 g/ha, flood test species, Pre-emergence, visual evaluation after twelve to sixteen days
# [9] = Rate 125 g/ha, under heading Pre-emergence, flood test species, visual evaluation after twelve to sixteen days
# [10] = Rate 500 g/ha, Pre-emergence section of Table B, 0 to 10 scale (0 no effect, 10 complete control)
smiles,measurement,setting,value
CCc1nc(C)c(C(C)n2c(=O)on(C(=O)N(c3ccc(F)cc3F)C(C)C)c2=O)s1 (stereo not shown) [Compound 589],Blackgrass plant response rating,blackgrass; [1],0
same,"Plant response rating, Blackgrass",blackgrass; [2],0
same,Blackgrass plant response rating,blackgrass; [3],2
same,"Plant response rating, Blackgrass",blackgrass; [4],3
same,Blackgrass plant response rating,blackgrass; [5],0
same,Blackgrass plant response rating,blackgrass; [6],0
same,Blackgrass plant response rating (0 to 10 scale),"blackgrass; Preemergence, Rate 250 g/ha",0
same,Blackgrass plant response rating,blackgrass; [7],0
same,B. signalgrass plant response rating,surinam grass; [1],0
same,"Plant response rating, B. signalgrass",surinam grass; [2],0
same,B. signalgrass plant response rating,surinam grass; [3],0
same,"Plant response rating, B. signalgrass",surinam grass; [4],3
same,B. signalgrass plant response rating,surinam grass; [5],0
same,B. signalgrass plant response rating,surinam grass; [6],0
same,"B. signalgrass plant response rating (0 to 10 scale, 0 is no effect, 10 is complete control)","surinam grass; Preemergence, Rate 250 g/ha",0
same,B. signalgrass plant response rating,surinam grass; [7],0
same,Cocklebur plant response rating,cocklebur; [1],0
same,"Plant response rating, Cocklebur",cocklebur; [2],0
same,Cocklebur plant response rating,cocklebur; [3],0
same,"Plant response rating, Cocklebur",cocklebur; [4],0
same,Cocklebur plant response rating,cocklebur; [5],0
same,Cocklebur plant response rating,cocklebur; [6],0
same,Cocklebur plant response rating (0 to 10 scale),"cocklebur; Preemergence, Rate 250 g/ha",0
same,Cocklebur plant response rating,cocklebur; [7],0
same,Corn plant response rating,corn; [1],0
same,"Plant response rating, Corn",corn; [2],0
same,Corn plant response rating,corn; [3],0
same,"Plant response rating, Corn",corn; [4],0
same,Corn plant response rating,corn; [5],0
same,Corn plant response rating,corn; [6],0
same,Corn plant response rating (0 to 10 scale),"corn; Preemergence, Rate 250 g/ha",0
same,Corn plant response rating,corn; [7],0
same,Crabgrass plant response rating,crabgrass; [1],0
same,"Plant response rating, Crabgrass",crabgrass; [2],0
same,Crabgrass plant response rating,crabgrass; [3],1
same,"Plant response rating, Crabgrass",crabgrass; [4],3
same,Crabgrass plant response rating,crabgrass; [5],0
same,Crabgrass plant response rating,crabgrass; [6],1
same,Crabgrass plant response rating,crabgrass; [7],9
same,Giant foxtail plant response rating,giant foxtail; [1],0
same,"Plant response rating, Giant foxtail",giant foxtail; [2],0
same,Giant foxtail plant response rating,giant foxtail; [3],0
same,"Plant response rating, Giant foxtail",giant foxtail; [4],3
same,Giant foxtail plant response rating,giant foxtail; [5],3
same,Giant foxtail plant response rating,giant foxtail; [6],9
same,Giant foxtail plant response rating,giant foxtail; [7],10
same,Morningglory plant response rating,morningglory; [1],3
same,"Plant response rating, Morningglory",morningglory; [2],3
same,Morningglory plant response rating,morningglory; [3],5
same,"Plant response rating, Morningglory",morningglory; [4],6
same,Morningglory plant response rating,morningglory; [5],0
same,Morningglory plant response rating,morningglory; [6],0
same,Morningglory plant response rating,morningglory; [7],0
same,"Plant response rating, Redroot pigweed",pigweed; [2],0
same,Redroot pigweed plant response rating,pigweed; [3],2
same,"Plant response rating, Redroot pigweed",pigweed; [4],2
same,Redroot pigweed plant response rating,pigweed; [5],0
same,Redroot pigweed plant response rating,pigweed; [6],0
same,Redroot pigweed plant response rating,pigweed; [7],0
same,Rape plant response rating,rape; [1],0
same,"Plant response rating, Rape",rape; [2],0
same,Rape plant response rating,rape; [3],0
same,"Plant response rating, Rape",rape; [4],2
same,Rape plant response rating,rape; [5],0
same,Rape plant response rating,rape; [6],0
same,Rape plant response rating,rape; [7],0
same,"Plant response rating, Soybean",soybean; [2],3
same,Soybean plant response rating,soybean; [3],3
same,"Plant response rating, Soybean",soybean; [4],3
same,Soybean plant response rating,soybean; [5],0
same,Soybean plant response rating,soybean; [6],0
same,Soybean plant response rating,soybean; [7],0
same,"Plant response rating, Sugarbeets",sugar beet; [2],0
same,Sugarbeets plant response rating,sugar beet; [3],0
same,"Plant response rating, Sugarbeets",sugar beet; [4],0
same,Sugarbeets plant response rating,sugar beet; [5],0
same,Sugarbeets plant response rating,sugar beet; [6],0
same,Sugarbeets plant response rating,sugar beet; [7],0
same,"Plant response rating, Velvetleaf",velvetleaf; [2],2
same,Velvetleaf plant response rating,velvetleaf; [3],5
same,"Plant response rating, Velvetleaf",velvetleaf; [4],5
same,Velvetleaf plant response rating,velvetleaf; [5],0
same,Velvetleaf plant response rating,velvetleaf; [6],0
same,Velvetleaf plant response rating,velvetleaf; [7],0
same,"Plant response rating, Wheat",wheat; [2],0
same,Wheat plant response rating,wheat; [3],0
same,"Plant response rating, Wheat",wheat; [4],0
same,Wheat plant response rating,wheat; [5],0
same,Wheat plant response rating,wheat; [6],0
same,Wheat plant response rating,wheat; [7],0
same,"Plant response rating, Wild oats",wild oat; [2],0
same,Wild oats plant response rating,wild oat; [3],0
same,Wild oats plant response rating,wild oat; [5],0
same,Wild oats plant response rating,wild oat; [6],0
same,Wild oats plant response rating,wild oat; [7],0
same,Nutsedge plant response rating,purple nutsedge; [1],0
same,"Plant response rating, Nutsedge",purple nutsedge; [2],0
same,Nutsedge plant response rating,purple nutsedge; [5],0
same,Nutsedge plant response rating,purple nutsedge; [6],0
same,Nutsedge plant response rating,purple nutsedge; [7],9
same,"Plant response rating, Rice (0 to 10 scale, 0 is no effect, 10 is complete control)",rice; [8],0
same,"Rice plant response rating (0 to 10 scale, 0 is no effect, 10 is complete control)",rice; [9],0
same,Rice plant response rating,rice; [10],0
same,"Plant response rating, S. Flatsedge (0 to 10 scale, 0 is no effect, 10 is complete control)",smallflower flatsedge; [8],0
same,"S. Flatsedge plant response rating (0 to 10 scale, 0 is no effect, 10 is complete control)",smallflower flatsedge; [9],0
same,S. Flatsedge plant response rating,smallflower flatsedge; [10],0
same,"Plant response rating, Ducksalad (0 to 10 scale, 0 is no effect, 10 is complete control)",duck salad; [8],0
same,"Ducksalad plant response rating (0 to 10 scale, 0 is no effect, 10 is complete control)",duck salad; [9],0
same,Ducksalad plant response rating,duck salad; [10],0
same,"Plant response rating, Barnyardgrass (0 to 10 scale, 0 is no effect, 10 is complete control)",bamyardgrass; [8],0
same,"Barnyardgrass plant response rating (0 to 10 scale, 0 is no effect, 10 is complete control)",bamyardgrass; [9],0
same,Barnyardgrass plant response rating,bamyardgrass; [10],0
